Test results: ChEMBL document CHEMBL1154925 (Bioorg Med Chem Lett, 2010)
pIC50: −log10 of the molar value. The source made the active and inactive calls. The calls are words filed in the database; no cut-off is given here.

What was measured:
[1] = molecular target: T1, Prostaglandin G/H synthase 1 (Ovis aries, UniProt P05979)
T1 sequence (P05979 whole entry): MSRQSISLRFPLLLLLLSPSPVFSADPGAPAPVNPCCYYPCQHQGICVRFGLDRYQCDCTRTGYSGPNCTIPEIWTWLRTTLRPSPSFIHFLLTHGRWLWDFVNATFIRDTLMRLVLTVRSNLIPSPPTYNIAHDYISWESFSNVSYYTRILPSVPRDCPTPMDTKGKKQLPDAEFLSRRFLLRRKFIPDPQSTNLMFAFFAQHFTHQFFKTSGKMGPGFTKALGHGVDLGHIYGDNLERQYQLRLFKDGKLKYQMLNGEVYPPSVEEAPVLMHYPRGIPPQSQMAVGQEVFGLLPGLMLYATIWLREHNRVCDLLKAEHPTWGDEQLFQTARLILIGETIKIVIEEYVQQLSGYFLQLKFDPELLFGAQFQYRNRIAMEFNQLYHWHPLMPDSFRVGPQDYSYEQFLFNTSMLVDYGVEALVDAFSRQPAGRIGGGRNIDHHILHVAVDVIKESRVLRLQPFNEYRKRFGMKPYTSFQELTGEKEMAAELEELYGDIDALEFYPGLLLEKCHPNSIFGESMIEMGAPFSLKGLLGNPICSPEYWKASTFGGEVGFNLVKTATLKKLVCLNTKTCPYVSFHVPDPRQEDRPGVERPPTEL

[2] = Half life in stimulated gastric fluid of pH 1.0; details: simulated gastric fluid
HEK293 = test: cells; details: Homo sapiens, HEK293, 72 h
[3] = molecular target: T2, Prostaglandin G/H synthase 2 (Mus musculus, UniProt Q05769)
T2 sequence (Q05769 whole entry): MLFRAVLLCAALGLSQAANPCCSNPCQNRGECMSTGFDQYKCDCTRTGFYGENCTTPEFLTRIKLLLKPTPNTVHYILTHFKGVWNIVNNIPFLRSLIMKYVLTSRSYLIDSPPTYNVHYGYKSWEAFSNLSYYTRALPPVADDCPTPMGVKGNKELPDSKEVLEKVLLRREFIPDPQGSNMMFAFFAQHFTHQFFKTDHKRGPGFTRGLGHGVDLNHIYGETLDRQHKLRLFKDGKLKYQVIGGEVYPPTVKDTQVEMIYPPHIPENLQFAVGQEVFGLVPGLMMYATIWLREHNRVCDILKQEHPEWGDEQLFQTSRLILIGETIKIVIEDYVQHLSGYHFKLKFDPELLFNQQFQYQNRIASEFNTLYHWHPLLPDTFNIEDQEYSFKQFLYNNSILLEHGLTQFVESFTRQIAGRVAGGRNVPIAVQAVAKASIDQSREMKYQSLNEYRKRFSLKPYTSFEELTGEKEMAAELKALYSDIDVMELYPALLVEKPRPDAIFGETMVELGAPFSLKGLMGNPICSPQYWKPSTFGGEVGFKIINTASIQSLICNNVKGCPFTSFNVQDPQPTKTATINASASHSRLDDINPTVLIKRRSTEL

Raji = test: cells; details: Homo sapiens, 72 h
[4] = molecular target: Prostaglandin G/H synthase 1 (Homo sapiens) (UniProt P23219); test: Inhibition of human COX1
[5] = molecular target: T3, Prostaglandin G/H synthase 2 (Homo sapiens) (UniProt P35354); test: Inhibition of human COX2
T3 sequence (whole entry): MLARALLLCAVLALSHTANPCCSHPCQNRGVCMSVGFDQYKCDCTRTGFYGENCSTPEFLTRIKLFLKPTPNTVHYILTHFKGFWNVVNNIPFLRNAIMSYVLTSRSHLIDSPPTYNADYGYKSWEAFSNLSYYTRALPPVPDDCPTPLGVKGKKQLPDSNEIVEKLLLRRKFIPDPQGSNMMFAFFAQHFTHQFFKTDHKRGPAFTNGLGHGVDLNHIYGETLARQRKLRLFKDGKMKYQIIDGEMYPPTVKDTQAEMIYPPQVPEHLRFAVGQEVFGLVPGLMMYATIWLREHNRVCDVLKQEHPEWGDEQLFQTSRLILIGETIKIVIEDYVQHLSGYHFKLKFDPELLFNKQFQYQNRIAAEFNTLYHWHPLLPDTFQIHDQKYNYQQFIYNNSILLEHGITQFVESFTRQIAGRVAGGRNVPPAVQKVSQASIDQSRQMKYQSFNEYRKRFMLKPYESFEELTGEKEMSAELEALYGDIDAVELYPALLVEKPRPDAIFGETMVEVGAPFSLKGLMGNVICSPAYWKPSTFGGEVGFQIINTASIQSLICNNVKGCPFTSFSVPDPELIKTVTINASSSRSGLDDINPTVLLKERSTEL

[6] = test system: Trypanosoma brucei brucei; test: microbe, parasite or virus in culture; details: 48 h
[7] = test system: Trypanosoma brucei brucei; details: 1 uM
[8] = test system: Trypanosoma brucei brucei; details: 100 nM
[9] = test system: Trypanosoma brucei brucei; details: 1 uM; remark: listed apart in the source
[10] = test system: Trypanosoma brucei brucei; details: 100 nM; remark: listed apart in the source

Prostaglandin G/H synthase 1 (Homo sapiens), sequence (P23219 whole entry): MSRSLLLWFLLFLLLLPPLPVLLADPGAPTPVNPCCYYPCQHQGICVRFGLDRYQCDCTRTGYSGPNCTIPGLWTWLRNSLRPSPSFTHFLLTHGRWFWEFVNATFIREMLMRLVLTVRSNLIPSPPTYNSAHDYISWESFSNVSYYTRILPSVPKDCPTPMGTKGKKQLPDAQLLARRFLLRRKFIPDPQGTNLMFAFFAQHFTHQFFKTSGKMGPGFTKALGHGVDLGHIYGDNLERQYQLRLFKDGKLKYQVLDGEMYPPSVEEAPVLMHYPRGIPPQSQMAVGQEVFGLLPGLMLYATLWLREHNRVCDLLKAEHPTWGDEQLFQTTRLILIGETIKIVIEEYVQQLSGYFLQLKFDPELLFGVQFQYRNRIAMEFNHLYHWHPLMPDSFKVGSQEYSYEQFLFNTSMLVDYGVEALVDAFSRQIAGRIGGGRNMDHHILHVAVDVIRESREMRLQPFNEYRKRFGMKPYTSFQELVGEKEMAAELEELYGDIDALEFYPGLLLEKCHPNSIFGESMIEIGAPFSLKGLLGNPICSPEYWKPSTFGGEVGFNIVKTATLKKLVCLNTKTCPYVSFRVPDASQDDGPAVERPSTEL

Row | Structure (SMILES) | pIC50 [1] | half-life [2] [h] | pIC50 (HEK293) | pIC50 [3] | pIC50 (Raji) | inhibition [4] | inhibition [5] | pIC50 [6] | inhibition [7] | inhibition [8] | inhibition [9] | inhibition [10]
1 | COc1ccc2cc([C@@H](C)C(=O)NCCCCNC(=O)CCC(=O)O[C@@H]3c4cc5c(cc4[C@H](c4cc(OC)c(OC)c(OC)c4)[C@@H]4C(=O)OC[C@H]43)OCO5)ccc2c1 | < 5.40 | > 24 | 6.48 | < 5.40 | 6.37 | – | – | – | – | – | – | –
2 | COc1cc([C@H]2c3cc4c(cc3[C@@H](OC(=O)CCC(=O)NCCCCNC(=O)[C@@H](C)c3cccc(C(=O)c5ccccc5)c3)[C@@H]3COC(=O)[C@@H]23)OCO4)cc(OC)c1OC | < 5.40 | > 24 | < 4.30 | < 5.40 | < 4.30 | – | – | – | – | – | – | –
3 | COc1ccc2c(c1)c(CC(=O)NCCOC(=O)CCC(=O)O[C@@H]1c3cc4c(cc3[C@H](c3cc(OC)c(OC)c(OC)c3)[C@@H]3C(=O)OC[C@H]31)OCO4)c(C)n2C(=O)c1ccc(Cl)cc1 | – | > 24 | 6.07 | – | 5.89 | inactive | inactive | – | – | – | – | –
4 | COc1ccc(CCNC(=O)CCC(=O)O[C@@H]2c3cc4c(cc3[C@H](c3cc(OC)c(OC)c(OC)c3)[C@@H]3C(=O)OC[C@H]32)OCO4)cc1 | < 5.40 | > 24 | 7.10 | < 5.40 | 6.89 | – | – | – | – | – | – | –
5 | COc1cc([C@H]2c3cc4c(cc3[C@@H](OC(=O)CCC(=O)NCc3ccc(NS(=O)(=O)c5cccc6c(N(C)C)cccc56)cc3)[C@@H]3COC(=O)[C@@H]23)OCO4)cc(OC)c1OC | < 5.40 | > 24 | – | < 5.40 | 7.43 | – | – | – | – | – | – | –
6 | COc1ccc2c(c1)c(CC(=O)O)c(C)n2C(=O)c1ccc(Cl)cc1 [INDOMETHACIN] | – | > 24 | < 4.30 | – | < 4.30 | – | – | < 4.30 | – | – | – | –
7 | COc1ccc2c(c1)c(CC(=O)N1CCN(C(=O)CCC(=O)O[C@@H]3c4cc5c(cc4[C@H](c4cc(OC)c(OC)c(OC)c4)[C@@H]4C(=O)OC[C@H]43)OCO5)CC1)c(C)n2C(=O)c1ccc(Cl)cc1 | – | > 24 | 6.28 | – | 6.29 | inactive | inactive | – | – | – | – | –
8 | COc1ccc2c(c1)c(CCNC(=O)CCC(=O)O[C@@H]1c3cc4c(cc3[C@H](c3cc(OC)c(OC)c(OC)c3)[C@@H]3C(=O)OC[C@H]31)OCO4)c(C)n2Cc1ccc(Br)cc1 | < 5.40 | > 24 | 6.62 | < 5.40 | 6.38 | – | – | – | – | – | – | –
9 | COc1ccc2c(c1)c(CC(=O)NCCCCNC(=O)CCC(=O)O[C@@H]1c3cc4c(cc3[C@H](c3cc(OC)c(OC)c(OC)c3)[C@@H]3C(=O)OC[C@H]31)OCO4)c(C)n2C(=O)c1ccc(Cl)cc1 | – | > 24 | 6.80 | 6.53 | 6.92 | inactive | inactive | – | Active | Active | – | –
10 | COc1cc([C@@H]2c3cc4c(cc3[C@H](OC(=O)CCC(=O)O)[C@H]3COC(=O)[C@H]23)OCO4)cc(OC)c1OC [SUCCINYLPODOPHYLLOTOXIN] | < 5.40 | > 24 | 7.12 | < 5.40 | 7.00 | – | – | – | – | – | – | –
11 | CO[C@@H](/C(C)=C/C=C/C(C)=C/c1coc(C)n1)[C@@H](C)[C@@H]1C[C@H](O)[C@@]2(C)O[C@@H]2/C=C/[C@@H](C)[C@H]2C[C@H](CC(=O)O2)C[C@@H]2O[C@H]2C(=O)O1 [RHIZOXIN] | – | > 24 | 6.46 | – | 6.47 | – | – | – | – | – | Active | Active
12 | COc1cc([C@H]2c3cc4c(cc3[C@@H](OC(=O)CCC(=O)NC[C@H](C)c3ccccc3)[C@@H]3COC(=O)[C@@H]23)OCO4)cc(OC)c1OC | < 5.40 | > 24 | 6.44 | < 5.40 | 6.27 | – | – | – | – | – | – | –
13 | COc1cc([C@H]2c3cc4c(cc3[C@@H](OC(=O)CCC(=O)NCCCCNC(=O)[C@@H](C)c3ccc(-c5ccccc5)c(F)c3)[C@@H]3COC(=O)[C@@H]23)OCO4)cc(OC)c1OC | < 5.40 | > 24 | 6.74 | < 5.40 | 6.74 | – | – | – | – | – | – | –
14 | COc1cc([C@@H]2c3cc4c(cc3[C@H](O)[C@H]3COC(=O)[C@H]23)OCO4)cc(OC)c1OC [PODOFILOX] | < 5.40 | > 24 | 7.77 | < 5.40 | 7.74 | – | – | – | – | – | – | –
15 | COc1ccc2c(c1)c(CC(=O)NCCCCCNC(=O)CCC(=O)O[C@@H]1c3cc4c(cc3[C@H](c3cc(OC)c(OC)c(OC)c3)[C@@H]3C(=O)OC[C@H]31)OCO4)c(C)n2C(=O)c1ccc(Cl)cc1 | < 5.40 | > 24 | – | – | 6.55 | inactive | inactive | – | – | – | – | –
16 | COc1cc([C@H]2c3cc4c(cc3[C@@H](OC(=O)CCC(=O)NCCCCNC(=O)[C@@H](C)c3ccc(CC(C)C)cc3)[C@@H]3COC(=O)[C@@H]23)OCO4)cc(OC)c1OC | < 5.40 | > 24 | 6.80 | < 5.40 | 6.77 | – | – | – | – | – | – | –
